# Patent US7262212B2, “2,3-dihydro-6-nitroimidazo[2,1-b]oxazoles” (Otsuka Pharmaceutical Co., Ltd., priority 2002, dated 2007)
row,SMILES,melting point
1,CC1(CSc2nc3ccccc3o2)Cn2cc([N+](=O)[O-])nc2O1 (centres unmarked),163 to 166 °C
2,CC(C)(C)OC(=O)N1CCN(C2CCN(C[C@@]3(C)Cn4cc([N+](=O)[O-])nc4O3)CC2)CC1,184 to 185 °C
3,C[C@]1(COc2nc3ccccc3o2)Cn2cc([N+](=O)[O-])nc2O1,232 to 233 °C
4,CC(C)(C)OC(=O)N1CCN(CC2Cn3cc([N+](=O)[O-])nc3O2)CC1 (centres unmarked),185 to 188 °C (dec.)
5,CN(CCOc1ccc(C(F)(F)F)cc1)C[C@@]1(C)Cn2cc([N+](=O)[O-])nc2O1,123 to 126 °C
6,CCn1c(=O)n(CC2(C)Cn3cc([N+](=O)[O-])nc3O2)c2cc(Cl)ccc21 (centres unmarked),240.9 to 245.6 °C
7,CC1(CCSc2nc3ccccc3o2)Cn2cc([N+](=O)[O-])nc2O1 (centres unmarked),174 to 175 °C
8,CC(C)(C)OC(=O)N1CCN(CC(=O)N2CCC3(CC2)Cn2cc([N+](=O)[O-])nc2O3)CC1,211 to 213 °C
9,O=C(CN1CCN(C(=O)OCc2ccc(OC(F)(F)F)cc2)CC1)N1CCC2(CC1)Cn1cc([N+](=O)[O-])nc1O2,137 to 139 °C
10,C[C@]1(CN2CCC3(CC2)OCCO3)Cn2cc([N+](=O)[O-])nc2O1,166.5 to 168.2 °C
11,C[C@]1(COc2ccc(C3CCN(C(=O)OCc4ccc(OC(F)(F)F)cc4)CC3)cc2)Cn2cc([N+](=O)[O-])nc2O1,202.5 to 204 °C
12,CN(CCOc1ccc(OC(F)(F)F)cc1)C[C@@]1(C)Cn2cc([N+](=O)[O-])nc2O1,112.5 to 115 °C
13,O=[N+]([O-])c1cn2c(n1)O[C@@H](CN1CCN(Cc3ccc(-c4ccccc4)cc3)CC1)C2,207 to 208 °C
14,CC(C)(C)OC(=O)N1CCN(C(=O)N2CCC3(CC2)Cn2cc([N+](=O)[O-])nc2O3)CC1,260 to 265 °C (dec.)
15,C[C@]1(COc2ccc(-n3cncn3)cc2)Cn2cc([N+](=O)[O-])nc2O1,236 to 238.7 °C
16,C[C@]1(CN2CCN(c3cc(-c4ccccc4)nc(-c4ccccc4)n3)CC2)Cn2cc([N+](=O)[O-])nc2O1,202.5 to 205.4 °C
17,CC1(COc2ccc(OC(F)(F)F)cc2)Cn2cc([N+](=O)[O-])nc2O1 (centres unmarked),126.8 to 127.9 °C
18,CC1(CN2C(=O)C(F)(F)c3ccccc32)Cn2cc([N+](=O)[O-])nc2O1 (centres unmarked),202 to 206 °C
19,CC1(c2cccnc2)Cn2cc([N+](=O)[O-])nc2O1 (centres unmarked),212 to 214 °C
20,CC1(Cn2c(=O)oc3ccc(Cl)cc32)Cn2cc([N+](=O)[O-])nc2O1 (centres unmarked),207.6 to 207.9 °C
21,CCOC(=O)C1CCN(c2ccc(OC[C@@]3(C)Cn4cc([N+](=O)[O-])nc4O3)cc2)CC1,208.2 to 211.5 °C
22,CC1(Cn2nc(C=Cc3ccc(Cl)cc3)oc2=O)Cn2cc([N+](=O)[O-])nc2O1 (centres unmarked),249 to 252 °C
23,CC1(COC(=O)Nc2ccc(Cl)cc2)Cn2cc([N+](=O)[O-])nc2O1 (centres unmarked),179 to 181 °C
24,CNC(=O)OC[C@@]1(C)Cn2cc([N+](=O)[O-])nc2O1,175 to 178 °C
25,CC1(CNC(=O)OCc2ccc(Cl)cc2)Cn2cc([N+](=O)[O-])nc2O1 (centres unmarked),221 to 221.8 °C
26,CN1CCC2(CC1)Cn1cc([N+](=O)[O-])nc1O2,237 to 239 °C (dec.)
27,C[C@]1(CN(CCOc2ccc(OC(F)(F)F)cc2)Cc2ccccc2)Cn2cc([N+](=O)[O-])nc2O1,96.5 to 97 °C

# Further lines, results first:
row,melting point,SMILES
1,226 to 230 °C (dec.),O=C(N1CCN(Cc2ccc(C(F)(F)F)cc2)CC1)N1CCC2(CC1)Cn1cc([N+](=O)[O-])nc1O2
2,101 to 103.6 °C,C[C@]1(CN2CCN(C(=O)NCc3ccc(C(F)(F)F)cc3)CC2)Cn2cc([N+](=O)[O-])nc2O1
3,249.2 to 250.1 °C,O=[N+]([O-])c1cn2c(n1)OC1(CCN(c3ccc(C(F)(F)F)cc3)CC1)C2
4,140 to 141 °C,C[C@]1(CN2CCN(C3CCN(Cc4ccc(OC(F)(F)F)cc4)CC3)CC2)Cn2cc([N+](=O)[O-])nc2O1
5,148 to 149 °C,CC1(CCN2CCN(Cc3ccc(C(F)(F)F)cc3)CC2)Cn2cc([N+](=O)[O-])nc2O1 (centres unmarked)
6,120 to 122 °C,O=C(OCc1ccc(C(F)(F)F)cc1)N1CCN(CC2Cn3cc([N+](=O)[O-])nc3O2)CC1 (centres unmarked)
7,180 to 181.5 °C,C[C@]1(CN2CCN(C3CCN(c4ccc(OC(F)(F)F)cc4)CC3)CC2)Cn2cc([N+](=O)[O-])nc2O1
8,165 to 167 °C,CC1(CN2CCC(C(=O)c3ccc(Cl)cc3)CC2)Cn2cc([N+](=O)[O-])nc2O1 (centres unmarked)
9,182 to 184 °C,CC1(CN2CCN(S(=O)(=O)CCc3ccc(Cl)cc3)CC2)Cn2cc([N+](=O)[O-])nc2O1 (centres unmarked)
10,213.8 to 215.7 °C,C[C@]1(CN2CCN(N=Cc3cc4cc(Cl)ccc4o3)CC2)Cn2cc([N+](=O)[O-])nc2O1
11,216 to 218 °C,C[C@]1(CN2CCN(S(=O)(=O)c3ccc(Cl)cc3)CC2)Cn2cc([N+](=O)[O-])nc2O1
12,123 to 126 °C,CC1(CN2CCN(CCCn3c(=O)oc4ccccc43)CC2)Cn2cc([N+](=O)[O-])nc2O1 (centres unmarked)
13,172 to 174 °C,CC1(CN2CCC(C(=O)c3ccc(C(F)(F)F)cc3)CC2)Cn2cc([N+](=O)[O-])nc2O1 (centres unmarked)
14,113 to 115 °C,CC1(COC(=O)N2CC=C(c3ccc(C(F)(F)F)cc3)CC2)Cn2cc([N+](=O)[O-])nc2O1 (centres unmarked)
15,184 to 187 °C,CC1(CN2CCN(C(=O)Cc3ccc(Cl)cc3)CC2)Cn2cc([N+](=O)[O-])nc2O1 (centres unmarked)
16,135 to 137 °C,COc1ccc(C(=O)N2CCN(CC3(C)Cn4cc([N+](=O)[O-])nc4O3)CC2)cc1 (centres unmarked)
17,183 to 184 °C,CC1(CN2CCN(C(=O)Nc3cccc(C(F)(F)F)c3)CC2)Cn2cc([N+](=O)[O-])nc2O1 (centres unmarked)
18,238 to 240 °C (dec.),O=C(Nc1ccc(F)cc1)N1CCC2(CC1)Cn1cc([N+](=O)[O-])nc1O2
19,153 to 155.3 °C,C[C@]1(CN2CCc3ccccc3C2)Cn2cc([N+](=O)[O-])nc2O1
20,117 to 119 °C,CC1(CN2CCC(Oc3ccc(OC(F)(F)F)cc3)CC2)Cn2cc([N+](=O)[O-])nc2O1 (centres unmarked)
21,168.4 to 171.7 °C,C[C@]1(CN2CCN(C(=O)N3CC=C(c4ccc(C(F)(F)F)cc4)CC3)CC2)Cn2cc([N+](=O)[O-])nc2O1
22,150 to 151 °C,C[C@]1(CN2CCN(C(=O)OCC=Cc3cccc(Cl)c3)CC2)Cn2cc([N+](=O)[O-])nc2O1.O=C(O)/C=C\C(=O)O
23,157 to 158 °C,C[C@]1(CN2CCN(C3CCN(CC=Cc4ccc(OC(F)(F)F)cc4)CC3)CC2)Cn2cc([N+](=O)[O-])nc2O1
24,244.2 to 249.8 °C (dec.),Cn1c(=O)n(CC2(C)Cn3cc([N+](=O)[O-])nc3O2)c2cc(F)ccc21 (centres unmarked)
25,154 to 156 °C,CC1(CCCN2CCN(Cc3ccc(C(F)(F)F)cc3)CC2)Cn2cc([N+](=O)[O-])nc2O1 (centres unmarked)
26,182 to 184 °C,C[C@]1(CN2CCN(Cc3ccc(-c4ccccc4)cc3)CC2)Cn2cc([N+](=O)[O-])nc2O1
27,115 to 117 °C,CC1(CN2CCCN(C(=O)OCc3ccccc3)CC2)Cn2cc([N+](=O)[O-])nc2O1.Cl (centres unmarked)
28,176 to 177 °C,C[C@]1(CN2CCN(S(=O)(=O)CCCCc3ccc(Cl)cc3)CC2)Cn2cc([N+](=O)[O-])nc2O1
29,145 to 146 °C,C[C@]1(CN2CCN(C(=O)CCCc3ccc(C(F)(F)F)cc3)CC2)Cn2cc([N+](=O)[O-])nc2O1
